50 molecules from PubChem BioAssay AID1949 (Southern Research Institute, 2009) can be followed below.

The test system of this assay is M. tuberculosis H37Rv growth inhibition. Description: Mycobacterium tuberculosis H37Rv growth inhibition, cell based, confirmatory dose response (AID 1949).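 Further: bacteria grown 7 days with compound before Alamar blue readout.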

Structures are written as SMILES. Converted amounts (≈) assume the structure as drawn. Inconclusive results are not listed. The source made the active and inactive calls. How the calls were made is not given here.

The IC50 is the concentration needed to halve the response being measured. With `O=C(Oc1cccc2cccnc12)c1cc2ccccc2oc1=O`, the concentration for half-maximal inhibition (IC50) is 3.06 µg/mL (≈ 9.64 µM).

`CC(=O)c1ccc(NC(=S)Nc2ccc(Br)c(Cl)c2)cc1`: the IC50 was 2.14 µg/mL (≈ 5.58 µM). To `Cc1ccc(C(C)C)c(OCCNCc2ccccc2)c1` belongs > 50 µg/mL (inactive); to `CC(C)(C)c1ccc(OCCN2C(=O)C(=O)c3cc(Br)ccc32)cc1`, 1.49 µg/mL (≈ 3.7 µM); to `Cc1ccc(OCCN2CCN(c3nc(NCc4ccccc4)c4ccccc4n3)CC2)cc1`, 1.42 µg/mL (≈ 3.13 µM).

With `O=C1c2cccc3cccc(c23)C(=O)N1CC1CCN(CC(O)COc2ccc3ccccc3c2)CC1` (stereo not given), the IC50 was 0.84 µg/mL (≈ 1.7 µM). `O=C1c2ccc(-c3nc4ccccc4c(=O)o3)cc2C(=O)N1Cc1ccccc1`: the IC50 was > 50 µg/mL (inactive).

On to `COC(=O)CSc1nc(N2CCCCC2)c2c(c1C#N)CCCC2`, for which the IC50 is 0.17 µg/mL (≈ 0.492 µM). Consider `Cc1ccc(OCC(=O)c2ccc(Cl)cc2)cc1C`, for which the IC50 is 17.6 µg/mL (≈ 64.1 µM). As for `CCOc1cccc(N2C(=O)CC(S/C(N)=N/N=C(\C)c3ccc(Cl)s3)C2=O)c1` (stereo not given), the IC50 was 2.62 µg/mL (≈ 5.81 µM). The result for `CCCn1c2ccccc2c2nc3ccccc3nc21` reads > 50 µg/mL (inactive); that for `Cc1ccc(Cl)cc1N1CCN(CC(O)COCC2COc3ccccc3O2)CC1` (stereo not given), 5.17 µg/mL (≈ 11.9 µM); that for `CN1CCN(c2ccc(NC(=S)NC(=O)c3ccc(-c4cccc(Cl)c4)o3)cc2)CC1`, 0.38 µg/mL (≈ 0.835 µM). To `Fc1cc(Br)cc2c1NC(c1cccnc1)C1CC=CC21` (stereo not given) belongs > 50 µg/mL (inactive).

On to `CC(C)OC(=O)C(C)n1cnc2scc(-c3ccc(Br)cc3)c2c1=O` (stereo not given), for which the half-maximal inhibitory concentration (IC50) is 8.3 µg/mL (≈ 19.7 µM). On to `CCn1c2ccccc2c2cc(CN3CCC(N4CCN(c5ccccc5OC)CC4)CC3)ccc21`, for which the half-inhibitory concentration (IC50) is 22.4 µg/mL (≈ 46.4 µM). On to `Cc1ccc(-c2csc3nc4c5ccccc5c(NCCCN5CCOCC5)nn4c(=O)c23)cc1`, for which the IC50 was > 50 µg/mL (inactive). With `O=C1c2cccc3cccc(c23)C(=O)N1CCN1CCN(CC(O)COCc2ccc(Cl)cc2)CC1` (stereo not given), the IC50 is 3.05 µg/mL (≈ 6 µM). The result for `COC(=O)COc1ccc(NC(=O)COc2cccc(C)c2)cc1` reads 0.77 µg/mL (≈ 2.34 µM); that for `C=CCN(CC=C)C(=S)NC(=O)c1ccc(F)cc1`, 0.81 µg/mL (≈ 2.91 µM); that for `O=C(NC(=S)N1CCN(C/C=C/c2ccccc2)CC1)c1ccc(Cl)cc1`, 0.39 µg/mL (≈ 0.975 µM). The result for `CCN(CC)CCn1nc2c3c(cccc3c1=O)-c1ccccc1-2` reads 5.48 µg/mL (≈ 17.2 µM); that for `CCOC(=O)c1ccc(NC(=O)CC2C(=O)N(Cc3ccccc3)C(=S)N2Cc2cccnc2)cc1` (stereo not given), 6.04 µg/mL (≈ 12 µM). As for `CCCNc1nc(Nc2ccc(C)cc2)nc(N2CCOCC2)n1`, the IC50 is 7.71 µg/mL (≈ 23.5 µM). `CCOc1ccc(NCCC(=O)c2cccs2)cc1`: the IC50 was 0.86 µg/mL (≈ 3.12 µM).

Consider `CC(=O)c1cccc(Nc2cc(C)nc3c2ccc2ccccc23)c1`, for which the IC50 was 3.1 µg/mL (≈ 9.5 µM). The result for `CCOc1ccc(Nc2nc(-c3ccccn3)cs2)cc1` reads less than 0.1 µg/mL; that for `CSc1nc(C)cc(OCC(=O)Nc2ccc(Cl)cc2)n1`, 6.69 µg/mL (≈ 20.7 µM); that for `Clc1ccc(OCCn2ccnc2)c2ccccc12`, 3.99 µg/mL (≈ 14.6 µM). To `CCC(C(=O)Nc1ccc(CC(=O)OC)cc1)c1ccccc1` (stereo not given) belongs 0.69 µg/mL (≈ 2.22 µM); to `Cc1cc(Nc2ccc(N(C)C)cc2)c2cccc(C)c2n1`, 4.43 µg/mL (≈ 15.2 µM). For the molecule `O=S(=O)(Nc1cc(Sc2cccc3cccnc23)c(O)c2ccccc12)c1ccccc1`, the concentration for half-maximal inhibition (IC50) was 0.18 µg/mL (≈ 0.393 µM).

With `O=C(NC(=S)Nc1ccccc1N1CCCC1)c1cccc2ccccc12`, the half-inhibitory concentration (IC50) was 0.36 µg/mL (≈ 0.959 µM). `O=C(Nc1ccc(C(F)(F)F)cc1)Nc1cccc(F)c1`: the IC50 is 0.76 µg/mL (≈ 2.55 µM). `CC(C)COc1ccc(CNC(=S)NCc2ccccc2)cc1`: the IC50 was 4.39 µg/mL (≈ 13.4 µM). For `Cc1ccc(Nc2nc(NCc3ccco3)c3ccccc3n2)cc1`, the IC50 was 1.44 µg/mL (≈ 4.36 µM).

As to `O=C(COc1ccc(Cl)cc1)Nc1ccc(N2CCN(C(=O)c3ccco3)CC2)c(Cl)c1`, the IC50 was 1.67 µg/mL (≈ 3.52 µM). The result for `O=C(CSc1ccc(F)cc1)Nc1ccccc1F` reads 5.83 µg/mL (≈ 20.9 µM). `COc1ccc2nc(NC(=O)C(Sc3ccccc3)c3ccccc3)sc2c1` (stereo not given): the IC50 is 4.87 µg/mL (≈ 12 µM). On to `CC1(C)C=Cc2c(nc3ccccc3c2NCc2ccccc2)C1`, for which the IC50 was 1.47 µg/mL (≈ 4.68 µM). In the case of `Cc1ccc(OCCCCNCCc2ccccc2)c(C)c1`, the IC50 was 9.13 µg/mL (≈ 30.7 µM).

As to `O=c1oc(-c2ccccc2)cc(Cl)c1Cl`, the IC50 is 2.04 µg/mL (≈ 8.46 µM).

In the case of `COC(=O)Cc1c(C)c2ccc(OCC(=O)OCc3ccccc3)c(C)c2oc1=O`, the IC50 is 0.11 µg/mL (≈ 0.268 µM). The result for `CCCCNCCOCCOc1ccc(Cl)cc1C(C)(C)C` reads 4.33 µg/mL (≈ 13.2 µM); that for `Nc1c(C(=O)NCc2ccc(Cl)cc2)sc2nc3c(c(C(F)(F)F)c12)CCC3`, 9.45 µg/mL (≈ 22.2 µM). Take `COC(=O)COc1ccc2c(=O)c(-c3ccc(Cl)cc3)coc2c1`: the IC50 is 0.99 µg/mL (≈ 2.87 µM).

For `CCOC(=O)c1ccc(COC(=O)c2cccc([N+](=O)[O-])c2)cc1`, the IC50 was 1.11 µg/mL (≈ 3.37 µM). Turning to `O=C(COc1ccc2ccccc2c1)c1ccc(Cl)cc1`, the IC50 is 16.5 µg/mL (≈ 55.4 µM). In the case of `O=[N+]([O-])/C=C/c1ccc(-c2ccccc2C(F)(F)F)o1`, the IC50 is 4.61 µg/mL (≈ 16.3 µM). In the case of `O=C(Nc1ccc(Cc2ccncc2)cc1)c1ccc(-c2cccc(C(F)(F)F)c2)o1`, the concentration for half-maximal inhibition (IC50) is 12 µg/mL (≈ 28.5 µM).
